Measurements from patent US20150315188A1, “COMPOUNDS AND METHODS FOR TREATMENT OF HYPERTENSION” (MEDIVATION TECHNOLOGIES, INC., priority 2012, published 2015).
Like-named read-outs stand apart in the source and are kept apart here.

Assays:
[1] = target: T1, Human adrenergic α2B receptor (Homo sapiens, UniProt P18089); assay: β-Arrestin GPCR functional assay, adrenergic α2B (Protocol B); type: cell-based; conditions: β-arrestin, antagonist vs nor-epinephrine EC80
T1 sequence (P18089 1-450): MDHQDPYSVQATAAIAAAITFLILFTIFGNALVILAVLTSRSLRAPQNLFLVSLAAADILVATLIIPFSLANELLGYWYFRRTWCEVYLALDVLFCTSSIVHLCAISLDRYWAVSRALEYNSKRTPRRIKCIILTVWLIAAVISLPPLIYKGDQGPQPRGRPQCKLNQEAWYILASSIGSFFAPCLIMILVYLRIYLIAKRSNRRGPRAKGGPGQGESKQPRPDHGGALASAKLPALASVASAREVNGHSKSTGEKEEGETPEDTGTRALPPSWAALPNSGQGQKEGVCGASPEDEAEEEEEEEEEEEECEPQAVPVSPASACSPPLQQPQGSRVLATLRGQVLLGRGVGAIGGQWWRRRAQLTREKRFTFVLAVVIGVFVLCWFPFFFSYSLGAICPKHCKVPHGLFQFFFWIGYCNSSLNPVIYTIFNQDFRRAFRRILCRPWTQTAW
Procedure: (§1) To evaluate the activity of compounds in β-Arrestin GPCR functional assays, recombinant CHO cell line (DiscoveRX), over expressed with human adrenergic α2B receptor were used. The experiment was done with kit of DiscoveRX as per recommended protocol of the supplier. Cells were harvested from culture flask using cell dissociation solution (CDS) and plated at a density of 12,000 cells/well in CP reagent (supplied with the kit) in a half area 96-well white polystyrene plate. After 24 h incubation at 37° C., compounds at various concentrations in 1% (final) DMSO were charged to the cells for 30 min at 37° C. Active nor-epinephrine (-NE) at its EC80 concentrations (50 nM) were then added to the cells and incubated for another 90 min at 37° C. Detection mix was prepared by mixing of Path Hunter cell assay buffer, Emerald II solution and Galactone star solution in a ratio of 19:5:1 and incubated with the cells for 60 min at RT in the dark. The reading was taken in Envision at luminescence mode. Biochemical assay results are presented as the percent Inhibition in Table B2a, or IC50 values in Table B2b.

[2] = target: T1, Human adrenergic α2B receptor; assay: Radioligand binding, adrenergic α2B (Protocol Group B); design: purchased Milipore (Millipore); conditions: Protocol Group B; for Percentage inhibition of ligand binding, Adrenergic α2B (10 nM): 10 nM compound, 0.01 µM; for Percentage inhibition of ligand binding, Adrenergic α2B (30 nM): 30 nM compound, 0.03 µM; for Percentage inhibition of ligand binding, Adrenergic α2B (0.1 μM): 0.1 μM compound; for Ki: estimated Ki
Method in brief: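 Compounds at various concentrations in 1% DMSO were tested on recombinant membranes in Tris-HCl pH 7.4 buffer containing MgCl2, CaCl2 and 0.2% BSA.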

[3] = target: T2, Human adrenergic α2A receptor (Homo sapiens, UniProt P08913); assay: β-Arrestin GPCR functional assay, adrenergic α2A (Protocol B); type: cell-based; conditions: β-arrestin, antagonist vs nor-epinephrine EC80
T2 sequence (P08913 1-465): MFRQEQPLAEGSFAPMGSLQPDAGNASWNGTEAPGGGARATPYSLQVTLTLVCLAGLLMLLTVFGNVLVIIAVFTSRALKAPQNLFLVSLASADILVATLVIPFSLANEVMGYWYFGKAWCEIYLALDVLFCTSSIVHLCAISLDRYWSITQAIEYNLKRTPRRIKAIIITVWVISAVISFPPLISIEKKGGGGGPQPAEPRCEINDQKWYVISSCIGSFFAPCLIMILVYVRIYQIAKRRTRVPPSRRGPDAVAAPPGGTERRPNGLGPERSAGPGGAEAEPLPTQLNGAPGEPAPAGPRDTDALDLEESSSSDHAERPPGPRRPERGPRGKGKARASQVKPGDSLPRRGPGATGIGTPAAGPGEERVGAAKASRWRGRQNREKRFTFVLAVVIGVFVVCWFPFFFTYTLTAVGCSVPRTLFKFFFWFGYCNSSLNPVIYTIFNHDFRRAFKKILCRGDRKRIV
Procedure: as §1, with “α2A” for “α2B”, “(270” for “(50”

[4] = target: T2, Human adrenergic α2A receptor; assay: Radioligand binding, adrenergic α2A (Protocol Group B); design: purchased Milipore (Millipore); conditions: Protocol Group B; for Ki: estimated Ki
Method in brief: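 Compounds (1% DMSO vehicle, various concentrations) competed against 2 nM [^3H]MK-912 on recombinant receptor membranes for 60 min at 25° C, Tris-HCl pH 7.4 buffer with Mg2+, Ca2+, BSA. Bound radioligand filtered and counted; 10 μM rauwolscine set nonspecific binding. Values: percent inhibition of specific binding or estimated Ki.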

[5] = target: T3, Human adrenergic α1B receptor (Homo sapiens, UniProt P35368); assay: Radioligand binding, adrenergic α1B (Protocol Group B); design: purchased Milipore (Millipore); conditions: Protocol Group B; for Ki: estimated Ki
T3 sequence (P35368 1-520): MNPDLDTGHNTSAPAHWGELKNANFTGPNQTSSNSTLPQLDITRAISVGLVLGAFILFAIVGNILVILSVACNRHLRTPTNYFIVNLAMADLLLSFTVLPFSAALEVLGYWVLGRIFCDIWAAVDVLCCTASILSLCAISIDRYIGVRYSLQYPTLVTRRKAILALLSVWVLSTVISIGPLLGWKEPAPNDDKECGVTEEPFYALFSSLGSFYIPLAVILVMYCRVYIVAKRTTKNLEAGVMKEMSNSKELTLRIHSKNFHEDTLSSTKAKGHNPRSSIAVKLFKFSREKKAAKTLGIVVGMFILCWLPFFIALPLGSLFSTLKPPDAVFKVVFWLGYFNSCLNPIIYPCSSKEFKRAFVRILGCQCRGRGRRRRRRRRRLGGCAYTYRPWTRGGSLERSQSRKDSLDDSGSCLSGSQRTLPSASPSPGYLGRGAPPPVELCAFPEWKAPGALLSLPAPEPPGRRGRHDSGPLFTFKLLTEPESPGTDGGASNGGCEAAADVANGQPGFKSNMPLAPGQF
Method in brief: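 Values are percent inhibition of specific [3H]prazosin (0.3 nM) binding or estimated Ki, from filtration counting. Human α1B recombinant membranes, Tris-HCl pH 7.4 buffer with MgCl2 and EDTA, 60 min at 25 °C, 1% DMSO vehicle; 10 μM prazosin defined nonspecific binding.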

Row | Structure (SMILES) | IC50 ([1]; read-out: IC50 Adrenergic α2B) | Percentage inhibition of ligand binding, Adrenergic α2B (10 nM) [2] | Percentage inhibition of ligand binding, Adrenergic α2B (30 nM) [2] | IC50 [3] | Percentage inhibition of ligand binding, Adrenergic α2A (0.1 μM) ([4]; 0.1 μM compound) | Percentage inhibition of ligand binding, Adrenergic α2A (0.3 μM) ([4]; 0.3 μM compound) | Percentage inhibition of ligand binding, Adrenergic α1B (0.1 μM) ([5]; 0.1 μM compound) | Percentage inhibition of ligand binding, Adrenergic α1B (0.3 μM) ([5]; 0.3 μM compound) | Ki ([2]; read-out: Ki α2B) | Ki [4] | also measured
1 | Cc1ccc2c(c1)c1c(n2CC(C)(O)c2cccnc2)CC2CCCN2C1 (single isomer, unassigned) [38c] | 364 nM | 43% | 71% | 7820 nM | 7% | 31% | 2% | 23% | – | – | Percentage inhibition of ligand binding, Adrenergic α2B (0.1 μM) [2]: 92%
2 | Cc1cc(F)c2c(c1)c1c(n2CC(C)(O)c2ccncc2)CCN2CCCC12 (single isomer, unassigned) [81b] | 15 nM | 98% | 100% | 1650 nM | 68% | 85% | 49% | 76% | 0.93 nM | 27.3 nM | Percentage inhibition of ligand binding, Adrenergic α2B (0.1 μM) [2]: 100%; Ki [5]: 35.6 nM
3 | Cc1ccc2c(c1F)c1c(n2CC(C)(O)c2cccnc2)CCN2CCCC12 (single isomer, unassigned) [87c] | 13 nM | 96% | 99% | 787 nM | 85% | 94% | 62% | 86% | 0.91 nM | 8.9 nM | Ki [5]: 26.2 nM
4 | Cc1ccc2c(c1F)c1c(n2CC(C)(O)c2cccnc2)CCN2CCCC12 (single isomer, unassigned) [87d] | 44 nM | 87% | 97% | 3680 nM | 57% | 79% | 34% | 67% | 1.54 nM | 54.9 nM | –
5 | CC(O)(Cn1c2c(c3cc(F)cc(Cl)c31)C1CCCN1CC2)c1cccnc1 (single isomer, unassigned) [89d] | – | 104% | 115% | 1970 nM | 74% | 99% | 15% | 54% | 0.85 nM | 26.2 nM | –
6 | Cc1ccc2c(c1)c1c(n2CC(C)(O)c2ccc(F)cc2)CC2CCC1N2C (single isomer, unassigned) [102b] | – | – | – | – | – | – | – | – | – | – | IC50 ([1]; IC50 Adrenergic α2B): 412 nM; Ki ([2]; Ki α2B): 19.3 nM; inhibition at 0.01 µM ([2]; read-out: Percentage inhibition of ligand binding, Adrenergic α2B (10 nM), 10 nM compound): 28%; inhibition at 0.03 µM ([2]; read-out: Percentage inhibition of ligand binding, Adrenergic α2B (30 nM), 30 nM compound): 56%; inhibition at 0.1 µM ([2]; read-out: Percentage inhibition of ligand binding, Adrenergic α2B (0.1 μM), 0.1 μM compound): 70%; inhibition at 0.1 µM ([4]; 0.1 μM compound, read-out: Percentage inhibition of ligand binding, Adrenergic α2A (0.1 μM)): -1%; inhibition at 0.3 µM ([4]; 0.3 μM compound, read-out: Percentage inhibition of ligand binding, Adrenergic α2A (0.3 μM)): 23%; inhibition at 0.1 µM ([5]; 0.1 μM compound, read-out: Percentage inhibition of ligand binding, Adrenergic α1B (0.1 μM)): 5%; inhibition at 0.3 µM ([5]; 0.3 μM compound, read-out: Percentage inhibition of ligand binding, Adrenergic α1B (0.3 μM)): 26%
7 | Cc1cc(F)cc2c3c(n(CC(O)c4ccncc4)c12)CCN1CCCC31 (single isomer, unassigned) [136b] | 68.3 nM | 76% | 96% | – | 45% | 72% | 24% | 63% | 2.45 nM | – | –
